In patent US8785457B2 (Cellzome Limited, priority 2009, dated 2014):
Where two headings read alike, the source gives them in different places.

Key:
Format in all cases: binding
[1] = target: T1, DNA-dependent protein kinase (DNA-PK) (Homo sapiens, UniProt P78527); assay: kinobeads assay, DNA-PK; conditions: kinobeads assay
T1 construct: endogenous in cells; host or cells: Jurkat, clone E6-1 (ATCC TIB-152) cell lysate
Summary of the method: (§1)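 IC50 values came from dose-response curves after test compound (1:3 series) competed with an immobilized phenylmorpholin-chromen affinity matrix for kinases in Jurkat lysate at 5 mg/mL protein. Eluted captured DNA-PK and PI3Kδ were measured by specific-antibody dot blot and infrared imaging. Buffer was Tris pH 7.4, NP40, MgCl2, NaCl, vanadate, DTT, NaF.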

[2] = target: T2, PI3Kalpha (PI3Ka) (Homo sapiens, UniProt P42336); assay: kinobeads assay, PI3Kalpha; conditions: kinobeads assay, Table 6; for IC50: read-out: Inhibition values (IC50) PI3Ka
T2 construct: endogenous in cells; host or cells: cell lysate
Summary of the method: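 Competitive binding in cell lysate: test compounds at various concentrations compete with beads carrying an immobilized phenylmorpholin-chromen ligand. Bead-captured kinases are eluted and quantified by multiplexed immunodetection. IC50 values come from dose-response curves for each kinase.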

[3] = target: T3, PI3K delta (PI3 Kd) (Homo sapiens, UniProt O00329); assay: kinobeads assay, PI3K delta; conditions: kinobeads assay, read-out: Inhibition values (IC50) PI3Kd
T3 construct: endogenous in cells; host or cells: Jurkat, clone E6-1 (ATCC TIB-152) cell lysate
Summary of the method: as §1

[4] = Table 4, read-out: Inhibition values (IC50) DNA-PK
[5] = Table 6, read-out: Inhibition values (IC50) DNAPK

T1 sequence (P78527 whole entry): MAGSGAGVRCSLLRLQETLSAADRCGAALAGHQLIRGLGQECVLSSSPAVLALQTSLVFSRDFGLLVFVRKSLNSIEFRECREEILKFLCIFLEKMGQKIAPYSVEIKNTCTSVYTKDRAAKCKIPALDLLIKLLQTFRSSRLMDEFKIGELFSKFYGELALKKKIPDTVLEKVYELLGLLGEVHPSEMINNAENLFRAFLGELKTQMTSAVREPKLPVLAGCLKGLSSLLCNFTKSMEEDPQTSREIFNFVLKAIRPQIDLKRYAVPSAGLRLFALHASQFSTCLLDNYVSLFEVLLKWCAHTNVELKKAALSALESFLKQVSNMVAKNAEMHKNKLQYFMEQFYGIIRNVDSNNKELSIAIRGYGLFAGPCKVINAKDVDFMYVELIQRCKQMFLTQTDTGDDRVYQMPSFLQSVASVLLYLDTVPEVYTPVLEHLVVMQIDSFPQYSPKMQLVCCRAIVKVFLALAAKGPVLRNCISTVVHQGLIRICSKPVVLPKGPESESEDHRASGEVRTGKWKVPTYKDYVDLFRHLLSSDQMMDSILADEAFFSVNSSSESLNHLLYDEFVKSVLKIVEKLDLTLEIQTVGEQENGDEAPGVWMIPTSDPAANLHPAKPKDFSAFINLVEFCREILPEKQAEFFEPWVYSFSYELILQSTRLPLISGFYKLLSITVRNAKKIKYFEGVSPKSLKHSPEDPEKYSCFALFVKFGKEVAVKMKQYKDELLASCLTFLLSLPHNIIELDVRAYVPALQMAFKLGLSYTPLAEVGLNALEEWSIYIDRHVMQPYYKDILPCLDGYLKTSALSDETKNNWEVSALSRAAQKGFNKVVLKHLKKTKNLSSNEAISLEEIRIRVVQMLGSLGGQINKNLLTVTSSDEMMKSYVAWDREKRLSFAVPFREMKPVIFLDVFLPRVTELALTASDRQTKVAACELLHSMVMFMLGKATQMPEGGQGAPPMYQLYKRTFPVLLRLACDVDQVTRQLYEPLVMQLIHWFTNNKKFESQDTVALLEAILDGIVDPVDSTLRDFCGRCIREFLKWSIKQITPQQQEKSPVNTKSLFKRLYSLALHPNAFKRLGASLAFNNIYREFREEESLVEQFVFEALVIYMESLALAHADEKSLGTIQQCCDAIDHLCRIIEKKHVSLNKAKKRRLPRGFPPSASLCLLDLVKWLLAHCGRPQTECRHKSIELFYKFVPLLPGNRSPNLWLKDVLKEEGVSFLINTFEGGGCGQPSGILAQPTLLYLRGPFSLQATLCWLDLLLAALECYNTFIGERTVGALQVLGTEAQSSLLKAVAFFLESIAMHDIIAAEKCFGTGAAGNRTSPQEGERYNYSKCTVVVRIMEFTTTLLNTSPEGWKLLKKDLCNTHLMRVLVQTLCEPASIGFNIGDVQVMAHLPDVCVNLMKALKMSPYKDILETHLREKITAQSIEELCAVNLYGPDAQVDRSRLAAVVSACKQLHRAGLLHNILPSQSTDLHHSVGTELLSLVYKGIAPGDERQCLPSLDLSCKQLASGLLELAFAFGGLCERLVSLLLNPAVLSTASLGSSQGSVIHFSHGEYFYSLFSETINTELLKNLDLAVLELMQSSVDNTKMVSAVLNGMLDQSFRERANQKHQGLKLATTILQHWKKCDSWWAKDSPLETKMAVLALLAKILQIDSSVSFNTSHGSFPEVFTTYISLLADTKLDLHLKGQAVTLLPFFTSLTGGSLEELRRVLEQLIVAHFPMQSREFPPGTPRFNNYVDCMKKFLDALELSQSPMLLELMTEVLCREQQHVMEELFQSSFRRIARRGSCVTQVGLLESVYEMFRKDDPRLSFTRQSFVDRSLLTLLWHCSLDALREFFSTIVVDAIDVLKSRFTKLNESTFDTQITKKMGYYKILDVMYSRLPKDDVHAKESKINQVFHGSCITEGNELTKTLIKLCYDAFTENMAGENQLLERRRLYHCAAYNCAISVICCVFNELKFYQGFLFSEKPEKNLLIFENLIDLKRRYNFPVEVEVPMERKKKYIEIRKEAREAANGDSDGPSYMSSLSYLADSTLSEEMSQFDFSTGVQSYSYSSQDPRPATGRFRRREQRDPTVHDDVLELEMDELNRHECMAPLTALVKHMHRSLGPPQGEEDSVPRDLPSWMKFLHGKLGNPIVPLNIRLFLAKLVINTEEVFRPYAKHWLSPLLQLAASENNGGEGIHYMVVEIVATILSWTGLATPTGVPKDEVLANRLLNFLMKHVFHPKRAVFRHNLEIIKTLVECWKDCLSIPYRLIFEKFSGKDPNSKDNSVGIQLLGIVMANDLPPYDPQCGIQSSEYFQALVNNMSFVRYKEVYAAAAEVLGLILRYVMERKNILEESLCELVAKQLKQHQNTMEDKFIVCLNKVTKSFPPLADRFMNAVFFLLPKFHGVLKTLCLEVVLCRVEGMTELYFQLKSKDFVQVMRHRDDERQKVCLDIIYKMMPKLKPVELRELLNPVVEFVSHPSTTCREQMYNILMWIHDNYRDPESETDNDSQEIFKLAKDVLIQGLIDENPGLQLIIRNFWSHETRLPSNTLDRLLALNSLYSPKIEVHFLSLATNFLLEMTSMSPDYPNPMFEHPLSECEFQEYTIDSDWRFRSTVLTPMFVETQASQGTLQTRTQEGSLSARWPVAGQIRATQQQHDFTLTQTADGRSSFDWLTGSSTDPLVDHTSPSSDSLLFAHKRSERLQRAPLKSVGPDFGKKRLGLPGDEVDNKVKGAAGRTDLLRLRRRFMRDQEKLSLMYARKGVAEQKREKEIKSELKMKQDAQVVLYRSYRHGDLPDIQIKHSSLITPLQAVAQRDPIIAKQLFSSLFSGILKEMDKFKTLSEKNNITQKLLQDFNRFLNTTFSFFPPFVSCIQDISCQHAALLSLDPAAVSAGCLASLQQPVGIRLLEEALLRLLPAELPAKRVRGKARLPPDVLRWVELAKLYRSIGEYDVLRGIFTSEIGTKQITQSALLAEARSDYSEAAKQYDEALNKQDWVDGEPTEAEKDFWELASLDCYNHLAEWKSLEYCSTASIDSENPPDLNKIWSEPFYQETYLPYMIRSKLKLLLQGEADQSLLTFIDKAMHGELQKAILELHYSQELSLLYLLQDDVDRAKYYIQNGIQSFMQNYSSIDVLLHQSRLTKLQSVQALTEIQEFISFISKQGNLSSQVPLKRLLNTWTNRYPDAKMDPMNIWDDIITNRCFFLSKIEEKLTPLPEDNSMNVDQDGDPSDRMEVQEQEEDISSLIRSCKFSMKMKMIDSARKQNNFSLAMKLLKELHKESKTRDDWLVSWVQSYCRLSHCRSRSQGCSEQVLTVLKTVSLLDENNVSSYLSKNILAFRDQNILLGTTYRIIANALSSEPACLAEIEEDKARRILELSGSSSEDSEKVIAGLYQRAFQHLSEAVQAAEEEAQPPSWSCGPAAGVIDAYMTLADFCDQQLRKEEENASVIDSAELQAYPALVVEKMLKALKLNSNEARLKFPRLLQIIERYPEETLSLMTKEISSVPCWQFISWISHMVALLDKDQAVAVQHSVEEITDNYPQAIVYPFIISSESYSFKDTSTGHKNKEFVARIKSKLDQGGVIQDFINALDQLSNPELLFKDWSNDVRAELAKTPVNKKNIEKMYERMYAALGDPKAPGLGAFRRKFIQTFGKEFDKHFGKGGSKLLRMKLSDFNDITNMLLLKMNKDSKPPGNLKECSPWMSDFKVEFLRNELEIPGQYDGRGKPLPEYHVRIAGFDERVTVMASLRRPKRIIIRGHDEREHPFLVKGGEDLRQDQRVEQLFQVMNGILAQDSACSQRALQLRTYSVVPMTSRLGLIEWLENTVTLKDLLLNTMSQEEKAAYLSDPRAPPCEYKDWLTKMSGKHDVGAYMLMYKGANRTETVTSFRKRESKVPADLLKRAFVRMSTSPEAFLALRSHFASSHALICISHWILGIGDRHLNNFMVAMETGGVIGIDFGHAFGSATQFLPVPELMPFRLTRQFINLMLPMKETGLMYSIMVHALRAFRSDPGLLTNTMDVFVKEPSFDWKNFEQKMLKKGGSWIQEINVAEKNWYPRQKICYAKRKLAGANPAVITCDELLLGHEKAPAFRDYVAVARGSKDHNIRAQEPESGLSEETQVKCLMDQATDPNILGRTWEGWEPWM

SMILES	IC50 [1, 4]	IC50 [1, 5]	Inhibition values (IC50) PI3Ka [2]	IC50 ([3]; Table 4)	IC50 ([3]; Table 6)	IC50 [2]
CC(=O)N1CCc2c(nc(-c3ccc(NC(=O)NC4CC4)cc3)nc2N2CCOC[C@@H]2C)C1 [Example 62, (S)-1-(4-(7-acetyl-4-(3-methylmorpholino)-5,6,7,8-tetrahydropyrido[3,4-d]pyrimidin-2-yl)phenyl)-3-cyclopropylurea]	> 10 µM	> 10 µM	D (D >10 μM)	> 10 µM	> 10 µM	–
CCNC(=O)Nc1ccc(-c2nc3c(c(N4CCOC[C@@H]4C)n2)CCN(C(=O)CO)C3)cc1 [Example 102, (S)-1-ethyl-3-(4-(7-(2-hydroxyacetyl)-4-(3-methylmorpholino)-5,6,7,8-tetrahydropyrido[3,4-d]pyrimidin-2-yl)phenyl)urea]	–	> 10 µM	D (D >10 μM)	–	> 10 µM	–
CCNC(=O)Nc1ccc(-c2nc3c(c(N4CCOC[C@@H]4C)n2)CN(C(=O)OCC)C3)c(F)c1 [Example 113, (S)-ethyl-2-(4-(3-ethylureido)-2-fluorophenyl)-4-(3-methylmorpholino)-5H-pyrrolo[3,4-d]pyrimidine-6(7H)-carboxylate]	–	> 10 µM	D (D >10 μM)	–	> 10 µM	–
CCNC(=O)N1CCc2c(nc(-c3ccc(NC(=O)NC4CC4)cc3)nc2N2CCOC[C@@H]2C)C1 [Example 88, (S)-2-(4-(3-cyclopropylureido)phenyl)-N-ethyl-4-(3-methylmorpholino)-5,6-dihydropyrido[3,4-d]pyrimidine-7(8H)-carboxamide]	–	> 10 µM	D (D >10 μM)	–	> 10 µM	–
C[C@H]1COCCN1c1nc(-c2ccc(NC(=O)NC3CC3)cc2)nc2c1CCN(C(=O)C1CC1)C2 [Example 60, (S)-1-(4-(7-(cyclopropanecarbonyl)-4-(3-methylmorpholino)-5,6,7,8-tetrahydropyrido[3,4-d]pyrimidin-2-yl)phenyl)-3-cyclopropylurea]	> 10 µM	> 10 µM	D (D >10 μM)	> 10 µM	> 10 µM	–
CCNC(=O)Nc1ccc(-c2nc3c(c(N4CCOC[C@@H]4C)n2)CCN(CC(C)C)C3)cc1.O=CO [Example 76, (S)-1-ethyl-3-(4-(7-isobutyl-4-(3-methylmorpholino)-5,6,7,8-tetrahydropyrido[3,4-d]pyrimidin-2-yl)phenyl)urea formate]	–	> 10 µM	D (D >10 μM)	–	> 10 µM	–
CCOC(=O)N1Cc2nc(-c3ccc(NC(=O)Nc4ccncc4)cc3)nc(N3CCOC[C@@H]3C)c2C1 [Example 121, (S)-ethyl 4-(3-methylmorpholino)-2-(4-(3-(pyridin-4-yl)ureido)phenyl)-5H-pyrrolo[3,4-d]pyrimidine-6(7H)-carboxylate]	–	> 10 µM	D (D >10 μM)	–	> 10 µM	–
CCNC(=O)Nc1ccc(-c2nc3c(c(N4CCOC[C@@H]4C)n2)CN(CC(C)(C)C)C3)cc1 [Example 67, (S)-1-ethyl-3-(4-(4-(3-methylmorpholino)-6-neopentyl-6,7-dihydro-5H-pyrrolo[3,4-d]pyrimidin-2-yl)phenyl)urea]	–	> 10 µM	D (D >10 μM)	–	> 10 µM	–
CCNC(=O)Nc1ccc(-c2nc3c(c(N4CCOCC4)n2)CN(C(=O)OCC)C3)cc1 [Example 70, Ethyl 2-(4-(3-ethylureido)phenyl)-4-morpholino-5H-pyrrolo[3,4-d]pyrimidine-6(7H)-carboxylate]	–	1 to 10 µM	D (D >10 μM)	–	1 to 10 µM	–
CCNC(=O)Nc1ccc(-c2nc3c(c(N4CCOCC4)n2)CN(C(=O)C(C)(C)C)C3)cc1 [Example 100, 1-ethyl-3-(4-(4-morpholino-6-pivaloyl-6,7-dihydro-5H-pyrrolo[3,4-d]pyrimidin-2-yl)phenyl)urea]	–	> 10 µM	–	–	> 10 µM	1 to 10 µM
CCOC(=O)N1Cc2nc(-c3ccc(NC(=O)NC4CC4)cc3F)nc(N3CCOC[C@@H]3C)c2C1 [Example 131, (S)-ethyl 2-(4-(3-cyclopropylureido)-2-fluorophenyl)-4-(3-methylmorpholino)-5H-pyrrolo[3,4-d]pyrimidine-6(7H)-carboxylate]	–	> 10 µM	D (D >10 μM)	–	> 10 µM	–
C[C@H]1COCCN1c1nc(-c2ccc(NC(=O)Nc3cccc(O)n3)cc2)nc2c1CN(C)C2 [Example 80, (S)-1-(6-hydroxypyridin-2-yl)-3-(4-(6-methyl-4-(3-methylmorpholino)-6,7-dihydro-5H-pyrrolo[3,4-d]pyrimidin-2-yl)phenyl)urea]	–	> 10 µM	–	–	> 10 µM	1 to 10 µM
CCNC(=O)Nc1ccc(-c2nc3c(c(N4CCOC[C@@H]4C)n2)CCN(C(=O)NCC)C3)cc1 [Example 87, (S)—N-ethyl-2-(4-(3-ethylureido)phenyl)-4-(3-methylmorpholino)-5,6-dihydropyrido[3,4-d]pyrimidine-7(8H)-carboxamide]	–	> 10 µM	D (D >10 μM)	–	> 10 µM	–
CCNC(=O)Nc1ccc(-c2nc3c(c(N4CCOCC4)n2)CCN(C(=O)OCC)C3)cc1 [Example 96, ethyl 2-(4-(3-ethylureido)phenyl)-4-morpholino-5,6-dihydropyrido[3,4-d]pyrimidine-7(8H)-carboxylate]	–	> 10 µM	D (D >10 μM)	–	> 10 µM	–
CCNC(=O)Nc1ccc(-c2nc3c(c(N4CCOC[C@@H]4C)n2)CN(C(=O)OC)C3)cc1 [Example 89, (S)-methyl 2-(4-(3-ethylureido)phenyl)-4-(3-methylmorpholino)-5H-pyrrolo[3,4-d]pyrimidine-6(7H)-carboxylate]	–	1 to 10 µM	D (D >10 μM)	–	> 10 µM	–
CCOC(=O)N1Cc2nc(-c3ccc(NC(=O)NCCF)cc3)nc(N3CCOC[C@@H]3C)c2C1 [Example 120, (S)-ethyl 2-(4-(3-(2-fluoroethyl)ureido)phenyl)-4-(3-methylmorpholino)-5H-pyrrolo[3,4-d]pyrimidine-6(7H)-carboxylate]	–	> 10 µM	D (D >10 μM)	–	> 10 µM	–
CCNC(=O)Nc1ccc(-c2nc3c(c(N4CCOC[C@@H]4C)n2)CN(C)C3)cc1F [Example 85, (S)-1-ethyl-3-(2-fluoro-4-(6-methyl-4-(3-methylmorpholino)-6,7-dihydro-5H-pyrrolo[3,4-d]pyrimidin-2-yl)phenyl)urea]	–	> 10 µM	D (D >10 μM)	–	> 10 µM	–
COC(=O)N1CCc2c(nc(-c3ccc(NC(=O)NC4CC4)cc3)nc2N2CCOC[C@@H]2C)C1 [Example 83, (S)-methyl 2-(4-(3-cyclopropylureido)phenyl)-4-(3-methylmorpholino)-5,6-dihydropyrido[3,4-d]pyrimidine-7(8H)-carboxylate]	–	> 10 µM	D (D >10 μM)	–	> 10 µM	–
CCNC(=O)Nc1cc(F)c(-c2nc3c(c(N4CCOC[C@@H]4C)n2)CCN(C)C3)cc1F [Example 108, (S)-1-(2,5-difluoro-4-(7-methyl-4-(3-methylmorpholino)-5,6,7,8-tetrahydropyrido[3,4-d]pyrimidin-2-yl)phenyl)-3-ethylurea]	–	> 10 µM	D (D >10 μM)	–	> 10 µM	–
CCNC(=O)Nc1ccc(-c2nc3c(c(N4CCOCC4)n2)CCN(C(=O)C(C)(C)C)C3)cc1 [Example 98, 1-ethyl-3-(4-(4-morpholino-7-pivaloyl-5,6,7,8-tetrahydropyrido[3,4-d]pyrimidin-2-yl)phenyl)urea]	–	> 10 µM	–	–	> 10 µM	1 to 10 µM
C[C@H]1COCCN1c1nc(-c2ccc(NC(=O)NCCO)cc2)nc2c1CN(C)C2 [Example 73, (S)-1-(2-hydroxyethyl)-3-(4-(6-methyl-4-(3-methylmorpholino)-6,7-dihydro-5H-pyrrolo[3,4-d]pyrimidin-2-yl)phenyl)urea]	–	> 10 µM	–	–	1 to 10 µM	1 to 10 µM
CC(C)CN1Cc2nc(-c3ccc(NC(=O)NC4CC4)cc3)nc(N3CCOC[C@@H]3C)c2C1 [Example 65, (S)-1-cyclopropyl-3-(4-(6-isobutyl-4-(3-methylmorpholino)-6,7-dihydro-5H-pyrrolo[3,4-d]pyrimidin-2-yl)phenyl)urea]	–	> 10 µM	D (D >10 μM)	–	> 10 µM	–
CCNC(=O)Nc1ncc(-c2nc3c(c(N4CCOC[C@@H]4C)n2)CCN(C)C3)s1 [Example 106, (S)-1-ethyl-3-(5-(7-methyl-4-(3-methylmorpholino)-5,6,7,8-tetrahydropyrido[3,4-d]pyrimidin-2-yl)thiazol-2-yl)urea]	–	> 10 µM	D (D >10 μM)	–	> 10 µM	–
CCOC(=O)N1Cc2nc(-c3ccc(NC(=O)NC4CC4)c(F)c3)nc(N3CCOC[C@@H]3C)c2C1 [Example 105, (S)-ethyl 2-(4-(3-cyclopropylureido)-3-fluorophenyl)-4-(3-methylmorpholino)-5H-pyrrolo[3,4-d]pyrimidine-6(7H)-carboxylate]	–	> 10 µM	D (D >10 μM)	–	> 10 µM	–
